Values belong to the molecule of their own block, whether it stands above or below them. The source made the active and inactive calls.
Assays:
[1] = test system: INS1; assay: INS-1E survival protection against cytokine death – cell-based, luminescence, retest, dose response (AID 449756); type: functional; settings: Rattus norvegicus;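 also: cell death triggered by IL-1 beta plus TNF-alpha plus IFN-gamma mixture; protective hits raise ATP signal compared with cytokine alone wells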
[2] = viability of PTEN-deleted HCT116 cells – cell-based, HCT116 PTEN knockout, dose response (AID 1047); type: functional;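 also: HCT116 colon tumor cells with PTEN knocked out; cells exposed to compound for 60 hours before readout; potency for loss of cell viability measured by luminescence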
[3] = viability of HCT116 lacking mutant beta-catenin – cell-based, human colon tumor, dose response (AID 1045); type: functional;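 also: HCT116 colon tumor cells with beta catenin knocked out; cells exposed to compound for 60 hours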
[4] = molecular target: SUMO-activating enzyme (Homo sapiens, UniProt Q9UBT2); assay: blockers of UBC9-mediated SUMO conjugation – biochemical, AlphaScreen, SUMOylation inhibitor project, confirmation (AID 2018); type: functional
[5] = molecular target: Mu-type opioid receptor (Homo sapiens, UniProt P35372); assay: SAR Analysis of Agonists of the MOR Receptor using an Image-Based Assay - Set 3. [Related pubchem assays (depositor defined):AID1777, AID1785, AID1786, AID1966, AID2133, AID2136, AID2284, AID2285, AID2352]; type: functional
Mu-type opioid receptor, sequence (P35372 whole entry): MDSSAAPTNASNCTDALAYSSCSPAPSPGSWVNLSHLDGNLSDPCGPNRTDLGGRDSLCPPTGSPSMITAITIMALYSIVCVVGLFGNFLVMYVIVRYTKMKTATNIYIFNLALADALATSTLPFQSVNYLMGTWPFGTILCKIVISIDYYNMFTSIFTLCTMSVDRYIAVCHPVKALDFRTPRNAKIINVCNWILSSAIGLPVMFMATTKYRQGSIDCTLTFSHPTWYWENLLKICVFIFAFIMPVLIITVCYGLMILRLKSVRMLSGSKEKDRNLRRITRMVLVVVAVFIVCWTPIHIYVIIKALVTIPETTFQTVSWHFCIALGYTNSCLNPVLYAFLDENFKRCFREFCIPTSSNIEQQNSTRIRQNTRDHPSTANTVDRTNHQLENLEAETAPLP

[6] = molecular target: Delta-type opioid receptor (Homo sapiens, UniProt P41143); assay: SAR Analysis of Agonists of the DOR Receptor using an Image-Based Assay - Set 3. [Related pubchem assays (depositor defined):AID1777, AID1786]; type: functional
Delta-type opioid receptor, sequence (P41143 whole entry, the tested form may be a part): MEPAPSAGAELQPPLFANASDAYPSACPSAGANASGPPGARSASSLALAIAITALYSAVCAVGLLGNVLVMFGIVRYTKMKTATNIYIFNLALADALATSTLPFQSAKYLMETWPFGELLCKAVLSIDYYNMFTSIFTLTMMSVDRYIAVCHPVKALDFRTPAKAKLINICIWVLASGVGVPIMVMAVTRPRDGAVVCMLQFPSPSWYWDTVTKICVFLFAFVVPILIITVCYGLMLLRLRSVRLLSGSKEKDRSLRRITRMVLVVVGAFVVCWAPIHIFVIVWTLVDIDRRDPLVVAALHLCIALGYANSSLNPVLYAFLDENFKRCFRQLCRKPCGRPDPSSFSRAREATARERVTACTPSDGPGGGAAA

[7] = molecular target: T1, Type-1 angiotensin II receptor (Homo sapiens, UniProt P30556); assay: agonist activity at AGTR1 – cell-based, uHTS hits, selectivity assay for APJ receptor agonist project, dose response (AID 488865); type: functional;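 also: beta-arrestin recruitment to AT1 measured by enzyme fragment complementation luminescence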
T1 sequence (P30556 whole entry): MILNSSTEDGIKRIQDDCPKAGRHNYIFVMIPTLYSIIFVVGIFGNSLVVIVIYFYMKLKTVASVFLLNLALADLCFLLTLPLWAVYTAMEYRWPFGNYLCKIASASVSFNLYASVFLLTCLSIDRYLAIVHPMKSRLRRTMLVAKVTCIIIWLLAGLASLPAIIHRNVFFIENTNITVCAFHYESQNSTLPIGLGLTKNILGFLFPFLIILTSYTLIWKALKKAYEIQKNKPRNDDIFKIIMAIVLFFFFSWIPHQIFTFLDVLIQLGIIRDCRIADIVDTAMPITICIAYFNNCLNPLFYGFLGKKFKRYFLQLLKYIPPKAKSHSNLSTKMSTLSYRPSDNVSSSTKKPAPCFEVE

[8] = cells
[9] = NIH3T3 cell viability loss – ATP luminescence, mouse fibroblasts, counter-screen, dose response (AID 2010); type: functional, cell-based;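 also: cells exposed to compound for about 90 hours before reading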
[10] = molecular target: T2, Runt-related transcription factor 1/Core-binding factor subunit beta (Homo sapiens, UniProt Q01196+Q13951); assay: disruptors of Runt domain/CBFb-SMMHC interaction – biochemical, FRET, Cerulean-Runt, Venus-CBFb-SMMHC, uHTS, […] (AID 1434); type: protein assay
T2 sequence (Q01196 whole entry, the tested form may be a part): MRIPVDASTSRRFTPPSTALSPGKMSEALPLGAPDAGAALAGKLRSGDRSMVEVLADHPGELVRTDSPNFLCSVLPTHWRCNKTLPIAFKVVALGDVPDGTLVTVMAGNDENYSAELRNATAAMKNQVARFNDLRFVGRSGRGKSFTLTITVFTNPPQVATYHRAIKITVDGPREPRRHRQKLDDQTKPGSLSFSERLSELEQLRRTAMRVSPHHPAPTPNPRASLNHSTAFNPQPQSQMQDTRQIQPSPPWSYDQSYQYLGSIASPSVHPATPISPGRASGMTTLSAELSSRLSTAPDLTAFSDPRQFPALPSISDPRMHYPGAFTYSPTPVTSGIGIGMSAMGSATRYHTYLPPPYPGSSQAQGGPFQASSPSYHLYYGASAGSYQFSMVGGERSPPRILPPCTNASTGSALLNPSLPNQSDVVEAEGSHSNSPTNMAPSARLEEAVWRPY
T2 sequence (Q13951 whole entry, the tested form may be a part): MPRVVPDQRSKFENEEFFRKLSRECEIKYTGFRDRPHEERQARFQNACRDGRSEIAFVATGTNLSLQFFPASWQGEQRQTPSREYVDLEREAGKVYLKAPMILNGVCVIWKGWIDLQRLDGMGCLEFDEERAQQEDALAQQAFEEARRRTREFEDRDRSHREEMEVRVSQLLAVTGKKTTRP

[11] = molecular target: T2, Runt-related transcription factor 1/Core-binding factor subunit beta; assay: Runt domain/CBFb-SMMHC interaction disruptors – biochemical, TR-FRET (AID 1438); type: protein assay
[12] = Trypanosoma cruzi growth suppression in host cells – NIH3T3 host cells, beta-gal luminescence, confirmation (AID 2044); type: functional, cell-based;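 also: intracellular parasites grown in NIH/3T3 mouse fibroblasts as host cells; luminescent beta-galactosidase reporter signal from transgenic T. cruzi replicating inside host cells; inhibitors lower the luminescence signal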
[13] = molecular target: T3, E3 ubiquitin-protein ligase XIAP (Homo sapiens, UniProt P98170); assay: Counter Screen using XIAP-Bir3 for Chemical Antagonists of Bir1/2 domains of IAP-family anti-apoptotic proteins. [Related pubchem assays (depositor defined):AID1018, AID1449, AID1514, AID1638, AID1749, AID1750, AID488957, AID488963]
T3 sequence (P98170 whole entry): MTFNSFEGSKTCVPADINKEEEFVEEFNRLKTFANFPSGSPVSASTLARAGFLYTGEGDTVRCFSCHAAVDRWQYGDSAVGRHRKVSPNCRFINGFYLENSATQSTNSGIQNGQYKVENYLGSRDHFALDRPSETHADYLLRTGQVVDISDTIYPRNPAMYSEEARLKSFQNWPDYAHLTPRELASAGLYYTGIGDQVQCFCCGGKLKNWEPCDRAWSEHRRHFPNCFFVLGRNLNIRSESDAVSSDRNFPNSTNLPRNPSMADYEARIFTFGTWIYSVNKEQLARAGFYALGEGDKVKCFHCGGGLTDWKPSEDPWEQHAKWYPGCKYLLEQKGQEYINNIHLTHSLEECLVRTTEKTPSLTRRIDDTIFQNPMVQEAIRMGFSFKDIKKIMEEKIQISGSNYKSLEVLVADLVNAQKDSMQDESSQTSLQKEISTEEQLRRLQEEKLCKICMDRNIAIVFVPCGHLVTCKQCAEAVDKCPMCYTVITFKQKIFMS

[14] = molecular target: T3, E3 ubiquitin-protein ligase XIAP; assay: small molecules displacing peptide from XIAP – biochemical, IAP family, fluorescence polarization (AID 1018); type: functional
[15] = molecular target: Signal transducer and activator of transcription 1-alpha/beta (Homo sapiens, UniProt P42224); assay: STAT3 blockade with qPCR and toxicity readouts – cell-based, STAT1 panel, cytotoxicity, late-stage follow-up, panel member STAT1 Inhibition (AID 2078)
Signal transducer and activator of transcription 1-alpha/beta, sequence (P42224 whole entry): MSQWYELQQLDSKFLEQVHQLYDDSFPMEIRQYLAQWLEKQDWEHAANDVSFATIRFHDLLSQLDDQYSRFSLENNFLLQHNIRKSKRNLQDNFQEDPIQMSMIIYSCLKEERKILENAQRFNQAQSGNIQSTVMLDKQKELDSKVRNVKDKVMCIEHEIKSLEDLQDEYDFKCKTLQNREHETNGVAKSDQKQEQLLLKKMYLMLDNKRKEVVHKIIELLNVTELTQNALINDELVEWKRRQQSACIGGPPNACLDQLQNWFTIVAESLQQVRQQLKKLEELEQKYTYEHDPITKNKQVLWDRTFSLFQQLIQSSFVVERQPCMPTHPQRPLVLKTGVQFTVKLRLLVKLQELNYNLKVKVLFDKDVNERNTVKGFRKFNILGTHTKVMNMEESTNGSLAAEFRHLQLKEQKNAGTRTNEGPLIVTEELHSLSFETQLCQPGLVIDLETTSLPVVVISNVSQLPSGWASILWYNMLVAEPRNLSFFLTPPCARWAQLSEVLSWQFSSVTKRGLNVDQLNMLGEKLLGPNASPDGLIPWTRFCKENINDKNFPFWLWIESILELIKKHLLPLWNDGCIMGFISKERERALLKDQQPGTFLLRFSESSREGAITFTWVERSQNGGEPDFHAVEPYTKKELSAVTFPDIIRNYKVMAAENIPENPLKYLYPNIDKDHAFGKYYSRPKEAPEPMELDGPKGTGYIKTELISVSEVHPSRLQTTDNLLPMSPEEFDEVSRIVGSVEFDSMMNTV

[16] = molecular target: Signal transducer and activator of transcription 3 (Homo sapiens, UniProt P40763); assay: STAT3 blockade with qPCR and toxicity readouts – cell-based, STAT1 panel, cytotoxicity, late-stage follow-up, panel member STAT3 Inhibition (AID 2078)
Signal transducer and activator of transcription 3, sequence (P40763 whole entry): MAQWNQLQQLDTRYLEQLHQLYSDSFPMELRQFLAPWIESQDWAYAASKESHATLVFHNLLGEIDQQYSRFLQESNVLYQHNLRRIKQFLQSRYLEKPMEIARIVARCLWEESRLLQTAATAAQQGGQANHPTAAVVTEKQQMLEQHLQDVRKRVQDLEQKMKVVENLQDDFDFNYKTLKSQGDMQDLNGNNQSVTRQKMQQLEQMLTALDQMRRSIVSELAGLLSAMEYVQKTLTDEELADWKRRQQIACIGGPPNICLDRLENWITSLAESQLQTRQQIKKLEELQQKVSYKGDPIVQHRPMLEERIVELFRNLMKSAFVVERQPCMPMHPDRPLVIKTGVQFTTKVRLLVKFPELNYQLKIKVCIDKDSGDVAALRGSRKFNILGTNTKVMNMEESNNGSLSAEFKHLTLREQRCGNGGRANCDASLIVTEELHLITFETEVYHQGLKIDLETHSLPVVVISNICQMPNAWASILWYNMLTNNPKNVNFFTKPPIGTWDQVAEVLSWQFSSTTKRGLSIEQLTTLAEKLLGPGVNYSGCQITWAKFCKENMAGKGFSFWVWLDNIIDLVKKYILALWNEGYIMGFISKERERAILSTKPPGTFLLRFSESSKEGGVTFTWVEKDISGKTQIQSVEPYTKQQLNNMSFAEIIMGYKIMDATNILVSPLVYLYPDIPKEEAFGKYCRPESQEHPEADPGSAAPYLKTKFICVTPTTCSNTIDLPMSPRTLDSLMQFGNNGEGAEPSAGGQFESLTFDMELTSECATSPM

[17] = molecular target: T4, Cannabinoid receptor 1 (Homo sapiens, UniProt P21554); assay: SAR analysis of agonists of the Cannabinoid Receptor 1 using an Image-Based Assay - Set 4. [Related pubchem assays (depositor defined):AID2013, AID2026]; type: functional
T4 sequence (P21554 whole entry): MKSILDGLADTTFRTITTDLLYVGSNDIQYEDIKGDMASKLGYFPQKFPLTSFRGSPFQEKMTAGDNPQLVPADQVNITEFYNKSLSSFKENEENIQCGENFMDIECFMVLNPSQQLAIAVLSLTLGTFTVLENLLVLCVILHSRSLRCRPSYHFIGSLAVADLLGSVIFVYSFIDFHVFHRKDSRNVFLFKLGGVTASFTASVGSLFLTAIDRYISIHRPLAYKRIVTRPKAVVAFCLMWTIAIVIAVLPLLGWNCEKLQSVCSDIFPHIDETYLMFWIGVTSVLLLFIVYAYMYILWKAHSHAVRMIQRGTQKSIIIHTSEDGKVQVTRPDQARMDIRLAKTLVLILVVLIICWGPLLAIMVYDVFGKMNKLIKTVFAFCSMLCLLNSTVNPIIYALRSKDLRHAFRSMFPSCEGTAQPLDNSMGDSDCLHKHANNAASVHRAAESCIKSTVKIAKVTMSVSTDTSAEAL

[18] = molecular target: T5, Cannabinoid receptor 2 (Homo sapiens, UniProt P34972); assay: SAR analysis of antagonists of the Cannabinoid Receptor 2 using an Image-Based Assay - Set 3. [Related pubchem assays (depositor defined):AID2013, AID2026]; type: functional
T5 sequence (P34972 whole entry): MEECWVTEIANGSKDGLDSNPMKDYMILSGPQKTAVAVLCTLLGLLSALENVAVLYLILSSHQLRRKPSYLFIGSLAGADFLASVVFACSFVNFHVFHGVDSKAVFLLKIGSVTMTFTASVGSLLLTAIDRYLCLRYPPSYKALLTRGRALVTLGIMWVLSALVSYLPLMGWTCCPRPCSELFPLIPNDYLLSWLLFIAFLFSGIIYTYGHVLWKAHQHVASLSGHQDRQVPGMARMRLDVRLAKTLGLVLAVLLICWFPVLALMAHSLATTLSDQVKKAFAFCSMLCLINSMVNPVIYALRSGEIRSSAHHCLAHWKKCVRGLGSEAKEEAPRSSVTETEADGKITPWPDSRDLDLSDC

[19] = molecular target: T6, G-protein coupled receptor 35 (Homo sapiens, UniProt Q9HC97); assay: SAR analysis of Antagonists of the GPR35 Receptor using an Image-Based Assay - Set 6. [Related pubchem assays (depositor defined):AID2013, AID2026]; type: functional
T6 sequence (Q9HC97 whole entry): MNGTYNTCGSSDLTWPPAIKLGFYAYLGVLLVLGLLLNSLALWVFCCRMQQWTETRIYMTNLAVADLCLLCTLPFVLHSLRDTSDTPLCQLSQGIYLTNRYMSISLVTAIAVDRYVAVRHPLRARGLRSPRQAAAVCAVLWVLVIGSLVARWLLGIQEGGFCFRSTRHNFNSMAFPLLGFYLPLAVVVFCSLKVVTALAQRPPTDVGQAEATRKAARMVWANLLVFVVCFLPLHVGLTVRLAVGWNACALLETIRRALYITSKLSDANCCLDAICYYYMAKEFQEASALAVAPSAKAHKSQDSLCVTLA

[20] = molecular target: T5, Cannabinoid receptor 2; assay: SAR analysis of agonists of the Cannabinoid Receptor 2 using an Image-Based Assay - Set 3. [Related pubchem assays (depositor defined):AID2013, AID2026]; type: functional
[21] = molecular target: T6, G-protein coupled receptor 35; assay: SAR analysis of Agonists of the GPR35 Receptor using an Image-Based Assay - Set 4. [Related pubchem assays (depositor defined):AID2013, AID2026]; type: functional
[22] = molecular target: G-protein coupled receptor 55 (Homo sapiens, UniProt Q9Y2T6); assay: SAR Analysis of Selective Antagonists of GPR55 using an Image-Based Assay - Set 4. [Related pubchem assays (depositor defined):AID2013, AID2026]; type: functional;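 also: antagonism of response to 5 µM lysophosphatidylinositol agonist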
G-protein coupled receptor 55, sequence (Q9Y2T6 whole entry): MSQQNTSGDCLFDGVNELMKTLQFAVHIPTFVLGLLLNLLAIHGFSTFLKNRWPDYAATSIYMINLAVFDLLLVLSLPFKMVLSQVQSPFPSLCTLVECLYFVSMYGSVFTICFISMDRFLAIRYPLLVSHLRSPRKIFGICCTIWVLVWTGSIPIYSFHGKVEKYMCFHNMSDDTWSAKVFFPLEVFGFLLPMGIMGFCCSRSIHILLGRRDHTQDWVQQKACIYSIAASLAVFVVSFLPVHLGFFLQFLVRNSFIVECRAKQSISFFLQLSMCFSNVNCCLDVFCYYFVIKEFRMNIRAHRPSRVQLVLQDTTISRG

[23] = molecular target: T4, Cannabinoid receptor 1; assay: SAR analysis of antagonists of the Cannabinoid Receptor 1 using an Image-Based Assay - Set 4. [Related pubchem assays (depositor defined):AID2013, AID2026]; type: functional

SMILES: CCCCCCCC(=O)Nc1ccc(C(=O)N/N=C/c2cccc([N+](=O)[O-])c2)cc1
AC50 [1]: 4.85 µM (active) | EC50 [2]: 3.02 µM (active) | EC50 [3]: 2.55 µM (active) | IC50 [4]: 34.7 µM (active)

EC50 [5]: > 32 µM (inactive) | EC50 [6]: > 64 µM (inactive)
SMILES: Cc1cc(C)c(CSc2nnc(-c3ccccn3)n2Cc2ccco2)c(C)c1

EC50 [7]: > 100 µM (inactive)
SMILES: O=c1oc2cc(OCc3ccc([N+](=O)[O-])cc3)ccc2c2c1CCCC2

SMILES: CCN1CCS/C1=C\C=C\C1=[N+](CC)CCS1
EC50 [8]: 0.028 µM (active) | EC50 [9]: > 60 µM (not active) | IC50 [10]: 1.35 µM (active) | IC50 [11]: > 100 µM (inactive) | EC50 [12]: < 0.1 µM (active)

IC50 [13]: > 100 µM (inactive) | IC50 [14]: > 100 µM (not active)
SMILES: COc1ccc(-c2nc(Cn3c(SCc4ccccc4F)nc4ccncc43)c(C)o2)cc1

SMILES: NNC(=O)c1cc2c(N3CCC(Cc4ccccc4)CC3)ncnc2s1
IC50 [15]: > 55.7 µM (inactive) | IC50 [16]: 13.7 µM (inactive)

EC50 [17]: > 32 µM (inactive) | IC50 [18]: > 32 µM (inactive) | IC50 [19]: > 32 µM (inactive) | EC50 [20]: 7.94 µM (active) | EC50 [21]: > 32 µM (inactive) | IC50 [22]: 5.85 µM (active) | IC50 [23]: > 32 µM (inactive)
SMILES: N=c1c(C(=O)NCc2cccnc2)cc2c(=O)n3ccccc3nc2n1C1CCCC1

— ChEMBL document CHEMBL1201862, “PubChem BioAssay data set” (2004)
